ChEMBL document CHEMBL5608244, “Preclinical Evaluation of Dihydropyrazole-Cored Positron Emission Tomography (PET) Ligands for Imaging of Receptor-Interacting Serine/Threonine Protein Kinase 1 (RIPK1) in the Brain” (J Med Chem, 2024)

What was measured:
[1] = Drug uptake in thalamus of ICR mouse brain assessed as reduction in radioactivity at 0.5 to 10 uM incubated for 30 mins in presence of 10 uM of 1-(5-(3-fluorophenyl)-4,5-dihydro-1H-pyrazol-1-yl)-2,2-dimethylpropan-1-one by Phosphor Imager analysis; assay type: ADME, tissue-based; design: scale not given: the % may be the effect or the level left; settings: 0.5 h, dose 0.5-10 µM
[2] = Biodistribution in ICR mouse heart at 0.74 MBq, iv measured after 10 mins by automatic gamma counter analysis; assay type: ADME, organism-based; settings: in vivo
[3] = Biodistribution in ICR mouse kidneys at 0.74 MBq, iv measured after 10 mins by automatic gamma counter analysis; assay type: ADME, organism-based, Kidney; settings: in vivo
[4] = Biodistribution in ICR mouse spleen at 0.74 MBq, iv measured after 60 mins by automatic gamma counter analysis; assay type: ADME, organism-based; settings: in vivo, 1 h
[5] = Biodistribution in ICR mouse muscle at 0.74 MBq, iv measured after 30 mins by automatic gamma counter analysis; assay type: ADME, organism-based, Muscle tissue; settings: in vivo, 0.5 h
[6] = Stability in saline measured for 60 to 150 mins by reversed-phase HPLC analysis; assay type: physicochemical; settings: buffer; time 60-150 min
[7] = Drug uptake in Sprague-Dawley rat brain assessed as reduction in radioactivity at 10 to 17.6 MBq, iv pretreated with 1-(5-(3-fluorophenyl)-4,5-dihydro-1H-pyrazol-1-yl)-2,2-dimethylpropan-1-one followed by compound administration measured upto 30 mins by PET analysis; assay type: ADME, organism-based; design: scale not given: the % may be the effect or the level left; settings: in vivo, 0.5 h, dose 10-17.6 MBq
[8] = Biodistribution in ICR mouse lung at 0.74 MBq, iv measured after 30 mins by automatic gamma counter analysis; assay type: ADME, organism-based; settings: in vivo, 0.5 h
[9] = Biodistribution in ICR mouse small intestine at 0.74 MBq, iv measured after 60 mins by automatic gamma counter analysis; assay type: ADME, organism-based; settings: in vivo, 1 h
[10] = Biodistribution in ICR mouse liver at 0.74 MBq, iv measured after 10 mins by automatic gamma counter analysis; assay type: ADME, organism-based; settings: in vivo
[11] = Biodistribution in ICR mouse brain at 0.74 MBq, iv measured after 30 mins by automatic gamma counter analysis; assay type: ADME, organism-based; settings: in vivo, 0.5 h
[12] = Drug metabolism in mouse liver assessed as polar radiometabolites accumulation at 13.5 MBq, iv measured after 30 mins by HPLC analysis; assay type: ADME, organism-based; settings: in vivo, 0.5 h
[13] = Biodistribution in ICR mouse brain at 0.74 MBq, iv measured after 2 mins by automatic gamma counter analysis; assay type: ADME, organism-based; settings: in vivo
[14] = Drug uptake in thalamus of ICR mouse brain assessed as reduction in radioactivity incubated for 30 mins in presence of 0.5 uM of GSK'547 by Phosphor Imager analysis; assay type: ADME, tissue-based; design: scale not given: the % may be the effect or the level left; settings: 0.5 h
[15] = Drug metabolism in mouse brain assessed as polar radiometabolites accumulation at 13.5 MBq, iv measured after 30 mins by HPLC analysis; assay type: ADME, organism-based; settings: in vivo, 0.5 h
[16] = Biodistribution in ICR mouse assessed as drug accumulation in lungs at 0.74 MBq, iv pretreated with GSK'547 followed by compound administration measured after 10 mins by automatic gamma counter analysis; assay type: ADME, organism-based; settings: in vivo
[17] = Biodistribution in ICR mouse bone at 0.74 MBq, iv measured after 60 mins by automatic gamma counter analysis; assay type: ADME, organism-based, Bone element; settings: in vivo, 1 h
[18] = Biodistribution in ICR mouse blood at 0.74 MBq, iv measured after 10 mins by automatic gamma counter analysis; assay type: ADME, organism-based; settings: in vivo
[19] = Biodistribution in ICR mouse brain at 0.74 MBq, iv measured after 60 mins by automatic gamma counter analysis; assay type: ADME, organism-based; settings: in vivo, 1 h
[20] = Drug metabolism in mouse liver assessed as parent compound remaining at 13.5 MBq, iv measured after 30 mins by HPLC analysis; assay type: ADME, organism-based; settings: read-out: Activity
[21] = Biodistribution in ICR mouse lung at 0.74 MBq, iv measured after 60 mins by automatic gamma counter analysis; assay type: ADME, organism-based; settings: in vivo, 1 h
[22] = Drug uptake in thalamus of ICR mouse brain assessed as reduction in radioactivity incubated for 30 mins in presence of 1-(5-(3-fluorophenyl)-4,5-dihydro-1H-pyrazol-1-yl)-2,2-dimethylpropan-1-one by Phosphor Imager analysis; assay type: ADME, tissue-based; settings: 0.5 h, dose 0.5-10 µM
[23] = Biodistribution in ICR mouse stomach at 0.74 MBq, iv measured after 30 mins by automatic gamma counter analysis; assay type: ADME, organism-based; settings: in vivo, 0.5 h
[24] = Lipophilicity, logD of compound at pH 7.4 by shake flask method; assay type: physicochemical; settings: buffer
[25] = Biodistribution in ICR mouse spleen at 0.74 MBq, iv measured after 10 mins by automatic gamma counter analysis; assay type: ADME, organism-based; settings: in vivo
[26] = Biodistribution in ICR mouse kidneys at 0.74 MBq, iv measured after 60 mins by automatic gamma counter analysis; assay type: ADME, organism-based, Kidney; settings: in vivo, 1 h
[27] = Drug uptake in Sprague-Dawley rat brain at 10 to 17.6 MBq, iv treated for about 1 min by PET analysis; assay type: ADME, organism-based; settings: in vivo, dose 10-17.6 MBq
[28] = Biodistribution in ICR mouse assessed as decrease in drug accumulation in small intestine at 0.74 MBq, iv pretreated with 1-(5-(3-fluorophenyl)-4,5-dihydro-1H-pyrazol-1-yl)-2,2-dimethylpropan-1-one followed by compound administration measured after 10 mins by automatic gamma counter analysis; assay type: ADME, organism-based; design: scale not given: the % may be the effect or the level left; settings: in vivo
[29] = Biodistribution in ICR mouse bone at 0.74 MBq, iv measured after 2 mins by automatic gamma counter analysis; assay type: ADME, organism-based, Bone element; settings: in vivo
[30] = Stability in Balb/c mouse plasma measured for 60 to 150 mins by reversed-phase HPLC analysis; assay type: ADME; settings: time 60-150 min
[31] = Biodistribution in ICR mouse lung at 0.74 MBq, iv measured after 10 mins by automatic gamma counter analysis; assay type: ADME, organism-based; settings: in vivo
[32] = Biodistribution in ICR mouse heart at 0.74 MBq, iv measured after 30 mins by automatic gamma counter analysis; assay type: ADME, organism-based; settings: in vivo, 0.5 h
[33] = Drug uptake in thalamus of ICR mouse brain assessed as reduction in radioactivity incubated for 30 mins in presence of GSK'547 by Phosphor Imager analysis; assay type: ADME, tissue-based; settings: 0.5 h
[34] = Biodistribution in ICR mouse pancreas at 0.74 MBq, iv measured after 2 mins by automatic gamma counter analysis; assay type: ADME, organism-based; settings: in vivo
[35] = Biodistribution in ICR mouse kidneys at 0.74 MBq, iv measured after 30 mins by automatic gamma counter analysis; assay type: ADME, organism-based, Kidney; settings: in vivo, 0.5 h
[36] = Biodistribution in ICR mouse pancreas at 0.74 MBq, iv measured after 30 mins by automatic gamma counter analysis; assay type: ADME, organism-based; settings: in vivo, 0.5 h
[37] = Drug uptake in thalamus of ICR mouse brain assessed as reduction in radioactivity incubated for 30 mins in presence of 0.5 uM of 1-(5-(3-fluorophenyl)-4,5-dihydro-1H-pyrazol-1-yl)-2,2-dimethylpropan-1-one by Phosphor Imager analysis; assay type: ADME, tissue-based; design: scale not given: the % may be the effect or the level left; settings: 0.5 h
[38] = Drug uptake in thalamus of ICR mouse brain assessed as reduction in radioactivity at 0.5 to 10 uM incubated for 30 mins in presence of 1 uM of GSK'547 by Phosphor Imager analysis; assay type: ADME, tissue-based; design: scale not given: the % may be the effect or the level left; settings: 0.5 h, dose 0.5-10 µM
[39] = Biodistribution in ICR mouse pancreas at 0.74 MBq, iv measured after 60 mins by automatic gamma counter analysis; assay type: ADME, organism-based; settings: in vivo, 1 h
[40] = Biodistribution in ICR mouse heart at 0.74 MBq, iv measured after 60 mins by automatic gamma counter analysis; assay type: ADME, organism-based; settings: in vivo, 1 h
[41] = Biodistribution in ICR mouse bone at 0.74 MBq, iv measured after 30 mins by automatic gamma counter analysis; assay type: ADME, organism-based, Bone element; settings: in vivo, 0.5 h

Compound: CC(C)(C)C(=O)N1N=CCC1c1cccc([18F])c1 (stereo unspecified)
- Activity [1]: ~ 26%
- Drug uptake [2]: 3.27 % ID/g
- Drug uptake [3]: 18.03 % ID/g
- Drug uptake [4]: 0.41 % ID/g
- Drug uptake [5]: 1.13 % ID/g
- Stability [6]: > 99%
- Activity [7]: 21.7%
- Drug uptake [8]: 2.58 % ID/g
- Drug uptake [9]: 30.6 % ID/g
- Drug uptake [10]: 11.39 % ID/g
- Drug uptake [11]: 0.48 % ID/g
- Drug metabolism [12]: Metabolite_Detected
- Drug uptake [13]: 4.89 % ID/g
- Activity [14]: ~ 5%
- Drug metabolism [15]: Metabolite_Detected
- Drug uptake [16]: 15.6%
- Drug uptake [17]: 5.69 % ID/g
- Drug uptake [18]: 4.92 % ID/g
- Drug uptake [19]: 0.21 % ID/g
- remaining at 0.5 h [20]: 1.5%
- Drug uptake [21]: 1.03 % ID/g
- Activity [22]: Dose-Dependent Effect
- Drug uptake [23]: 0.44 % ID/g
- logD [24]: 2.25
- Drug uptake [25]: 1.99 % ID/g
- Drug uptake [26]: 3.95 % ID/g
- SUVmax [27]: 1.3
- Activity [28]: 25.3%
- Drug uptake [29]: 3.3 % ID/g
- Stability [30]: > 98%
- Drug uptake [31]: 7.23 % ID/g
- Drug uptake [32]: 1.3 % ID/g
- Activity [33]: Dose-Dependent Effect
- Drug uptake [34]: 6.65 % ID/g
- Drug uptake [35]: 9.68 % ID/g
- Drug uptake [36]: 1.51 % ID/g
- Activity [37]: ~ 5%
- Activity [38]: ~ 18%
- Drug uptake [39]: 1.46 % ID/g
- Drug uptake [40]: 0.5 % ID/g
- Drug uptake [41]: 8.26 % ID/g
